Measurements: publication PMC9032385, “A2A Adenosine Receptor Antagonists: Are Triazolotriazine and Purine Scaffolds Interchangeable?” (Molecules, 2022)
pKi: −log10 of the molar value.

How the values were obtained:
[1] = molecular target: T1, human recombinant A1AR (Homo sapiens, UniProt P30542); experiment: Radioligand binding at human A1AR ([3H]CCPA displacement, CHO cell membranes); conditions: displacement of [3H]CCPA, n = 3–5, means ± standard errors
T1 construct: expressed in transfected cells; membrane preparation
T1 sequence (P30542 1-326): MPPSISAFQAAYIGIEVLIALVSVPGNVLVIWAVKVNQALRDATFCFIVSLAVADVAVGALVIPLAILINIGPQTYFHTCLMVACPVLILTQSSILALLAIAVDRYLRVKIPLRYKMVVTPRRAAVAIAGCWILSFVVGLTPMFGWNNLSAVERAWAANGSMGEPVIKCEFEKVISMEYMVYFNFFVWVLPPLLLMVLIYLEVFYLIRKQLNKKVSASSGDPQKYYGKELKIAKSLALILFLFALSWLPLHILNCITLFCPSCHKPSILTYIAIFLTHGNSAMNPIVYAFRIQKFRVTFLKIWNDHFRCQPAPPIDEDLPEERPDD
Method: (§1) The affinities of the newly synthesized compounds 7–13 and 17–21 were determined in binding studies at human recombinant A1, A2A, and A3 ARs, stably transfected in Chinese hamster ovary (CHO) cells, using [^3H]CCPA (2-chloro-N^6-cyclopentylAdo), [^3H]NECA (5′-N-ethylcarboxamidoAdo), and [^3H]HEMADO (2-hexynyl-N^6-methylAdo) as respective radioligands. Most of the compounds were also evaluated at A2BARs in a functional study using the GloSensor cAMP assay. The results are reported in Table 1 as Ki values in nM (± standard errors). In the case of A2BARs, Ki-values were calculated from IC50-values determined by the inhibition of NECA-stimulated adenylyl cyclase activity.
(§2) Cell culture: The Chinese hamster ovary cells (CHO) stably transfected with the desired ARs were grown in DMEM/F12 medium containing 10% FBS (fetal bovine serum), 100 U/mL penicillin, 100 µg/mL streptomycin, 2.5 μg/mL amphotericin B, 1 mM sodium pyruvate, 0.1 mg/mL genetecina (G418), and incubated at 37 °C in a gaseous mixture of 5% CO2: […].
(§3) Preparation of membranes: Cell membranes for binding assays were prepared mechanically detaching the cells from the petri and suspending them in a cold hypotonic buffer (5 mM Tris/HCl, 2 mM EDTA, pH 7.4). The cell suspension was homogenized (Ultra-Turrax, 2 × 15 s at maximum speed) and the homogenate centrifuged for 10 min (4 °C) to 1000× g. The supernatant was subsequently centrifuged for 30 min (4 °C) at 100,000× g and the pellet containing the membrane proteins was re-suspended in a specific buffer for each receptor subtype (A1: 50 mM Tris/HCl, pH 7.4; A2A: 50 mM Tris/HCl, 10 mM MgCl2, pH 7.4; A3: 50 mM Tris/HCl, 10 mM MgCl2, 1 mM EDTA, pH 8.25). The amount of the protein suspension was determined according to the […] using the BCA Protein Assay Kit (Pierce), frozen in liquid nitrogen, and stored at −80 °C.
(§4) Binding assays: The dissociation constants of the radioligand (KD) were calculated through saturation assays, while the dissociation constants of the compounds under study (Ki) were determined by competition experiments. All binding data were calculated by nonlinear regression curves using the software GraphPad Prism 5 (GraphPad Software, San Diego, CA, USA). The increasing concentrations of the radioligand saturation binding ([^3H]-CCPA for the A1 receptor subtype, [^3H]-NECA for the A2A receptor subtype, and [^3H]-HEMADO for the A3 receptor) subtype were incubated in a total volume of 250 μL containing 0.2 U/mL of Ado deaminase (ADA) and 12 micrograms of membrane proteins in the specific buffer. In competition experiments for the A1 receptor subtype, each compound was added at increasing concentrations, to the well containing 1 nM of [^3H]-CCPA, to a final volume of 200 μL. The samples were left to incubate for 3 h at room temperature, filtered in a filter 96-well plate (UniFilter GF/C, Perkin-Elmer Life and Analytical Science, Boston, MA) using the FilterMate Cell Harvester (Perkin-Elmer), and washed 3 times with cold distilled water. After drying the filter plate at 40 °C for 30′, they 20 μL of scintillating liquid (Microscint-20, Perkin-Elmer) was added to each well, and then the radioactivity was quantized with the MicroBeta2 Plate Counter (Perkin-Elmer). The conditions for binding experiments at A2A and A3 receptor subtypes were essentially the same as for the A1AR using [^3H]-NECA (N-ethylcarboxyamideAdo) at a concentration of 10 nM and [^3H]-HEMADO (2-(1-hexyne)-N^6-methylAdo) at a concentration of 1 nM as radioligands, respectively. The samples were incubated with 12 micrograms of protein for 3 h at room temperature and filtered as described above.
(§5) The non-specific binding was determined in the presence of 1 mM theophylline for the A1AR, or 100 µM R-PIA (N^6-(1-methyl-2-phenylethyl)Ado) for the A2A and A3 receptors.

[2] = molecular target: T2, human recombinant A3AR (Homo sapiens, UniProt P0DMS8); experiment: Radioligand binding at human A3AR ([3H]HEMADO displacement, CHO cell membranes); conditions: displacement of [3H]HEMADO, n = 3–5, means ± standard errors
T2 construct: expressed in transfected cells; membrane preparation
T2 sequence (P0DMS8 1-318): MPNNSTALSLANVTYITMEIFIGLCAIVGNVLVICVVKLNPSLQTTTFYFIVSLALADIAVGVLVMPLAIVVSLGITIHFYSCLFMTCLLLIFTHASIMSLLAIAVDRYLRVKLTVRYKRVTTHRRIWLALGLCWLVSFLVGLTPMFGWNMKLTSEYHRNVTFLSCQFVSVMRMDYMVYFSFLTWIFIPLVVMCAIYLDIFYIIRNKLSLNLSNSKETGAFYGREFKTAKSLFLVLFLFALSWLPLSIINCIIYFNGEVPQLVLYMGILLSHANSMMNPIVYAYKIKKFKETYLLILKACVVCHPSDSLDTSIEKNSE
Method: as §1, §2, §3, §4, §5

Compound: CCn1c(-c2ccco2)nc2c(N)nc(NCCc3ccc(O)cc3)nc21 [compound 13, 4-(2-((6-Amino-9-ethyl-8-(furan-2-yl)-9H-purin-2-yl)amino)ethyl)phenol]
- pKi [1]: 7.29
- pKi [2]: 7.92
